This is an account of results in PubChem BioAssay (NCI).

Some test systems named below: SF-539 CNS; HCT-15 colon; U251 CNS; SNB-19 CNS; A549 NSCLC; SK-MEL-2 melanoma; SK-MEL-5 melanoma; HT29 colon; SN12C renal.
Common to all, as to experiment: NCI anticancer screen, dose series, 48 h

Molecules are shown by their SMILES.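 Method: 48-hour compound exposure of cells in 96-well plates, five concentrations, linear interpolation of endpoints. At the GI50, growth is halved. TGI is the concentration that stops growth completely.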

Consider `N/N=C1\C(=O)N(C2CCCCCC2)C(=O)C1C(=O)NC1CCCCCC1` (centres undefined), for which the TGI with SF-539 CNS is 56.1 µM; in the test with HCT-15 colon it was 82.7 µM; with U251 CNS it was 31.7 µM; with SNB-19 CNS, greater than 100 µM; in the test with A549 NSCLC it was greater than 100 µM; with SK-MEL-2 melanoma, 37.6 µM. Besides, the TGI with SK-MEL-5 melanoma was 43.6 µM; in the test with HT29 colon, greater than 100 µM; in the test with SN12C renal it was 65.6 µM.

Regarding `O=C(CCC(=O)Nc1ccc(Cl)c(Cl)c1)CC(=O)c1ccc(Br)cc1`, the TGI in the test with SF-539 CNS, in the test with HCT-15 colon, in the test on U251 CNS, in the test with SNB-19 CNS, in the test on A549 NSCLC and in the test on SK-MEL-2 melanoma was greater than 100 µM each time. The TGI in the test with SK-MEL-5 melanoma, in the test with HT29 colon and with SN12C renal was greater than 100 µM each time.

As for `C=C1C(=O)OC2C/C(C)=C/CC/C(C)=C/CCC3(COC(C)=O)OC3CC12` (centres undefined), the TGI came out at 7.85 µM with SF-539 CNS; 10.7 µM in the test with HCT-15 colon; 23.3 µM in the test on U251 CNS; 31.4 µM in the test on SNB-19 CNS; 32.2 µM in the test on A549 NSCLC; 14.4 µM with SK-MEL-2 melanoma. Also, the results for the TGI with SK-MEL-5 melanoma, in the test with HT29 colon and in the test with SN12C renal were 28.3 µM, 24.1 µM and 34.1 µM, respectively.

In the case of `Cc1nn[n-]n1.N.N.N.N.N.[Cl-].[Co+3]`, the GI50 in the test with SF-539 CNS, with HCT-15 colon, in the test with U251 CNS, in the test with SNB-19 CNS, in the test on A549 NSCLC and in the test on SK-MEL-2 melanoma was greater than 100 µM throughout. Besides, the GI50 in the test with SK-MEL-5 melanoma, with HT29 colon and in the test on SN12C renal was greater than 100 µM throughout. The TGI in the test with SF-539 CNS, in the test with HCT-15 colon, with U251 CNS, with SNB-19 CNS, with A549 NSCLC and in the test with SK-MEL-2 melanoma was greater than 100 µM throughout. In addition, the TGI in the test with SK-MEL-5 melanoma, with HT29 colon and in the test with SN12C renal was greater than 100 µM throughout.

Regarding `CC(C)(C)c1cc(C(O)(C(F)(F)F)C(F)(F)F)c2c(c1)C(C(F)(F)F)(C(F)(F)F)OC(C)(C(C)(C)C)N2` (centres undefined), the TGI was 14.5 µM with HCT-15 colon; 10.9 µM in the test on U251 CNS; greater than 100 µM with SNB-19 CNS; 33.4 µM with A549 NSCLC; 17.7 µM in the test with SK-MEL-2 melanoma; 4.7 µM with SK-MEL-5 melanoma. The results for the TGI with HT29 colon and in the test on SN12C renal were 22.7 µM and 16.8 µM, respectively.

As for `COC(=O)/C=C(C)/C=C/C1OC(C)OCC1O` (centres undefined), the TGI in the test on SF-539 CNS, in the test with HCT-15 colon, in the test with U251 CNS, with SNB-19 CNS, in the test on A549 NSCLC and in the test on SK-MEL-5 melanoma was greater than 100 µM in each case. In addition, the TGI in the test with HT29 colon and in the test on SN12C renal was greater than 100 µM throughout.

`N#CN/C(N)=N/C/N=C(\N)NC#N`: the TGI in the test on SF-539 CNS was greater than 100 µM; in the test with HCT-15 colon, 50.2 µM; with U251 CNS it was greater than 100 µM; with SNB-19 CNS, greater than 100 µM; with A549 NSCLC it was greater than 100 µM; in the test with SK-MEL-2 melanoma, greater than 100 µM. For the same molecule, the TGI in the test on SK-MEL-5 melanoma, in the test on HT29 colon and in the test with SN12C renal was greater than 100 µM throughout.

On to `CCNC(=O)COc1ccc(Br)cc1Br`, for which the TGI in the test with SF-539 CNS, in the test with HCT-15 colon, with U251 CNS, with SNB-19 CNS, in the test on A549 NSCLC and in the test on SK-MEL-2 melanoma was greater than 100 µM each time. Moreover, the TGI in the test with SK-MEL-5 melanoma, with HT29 colon and in the test with SN12C renal was greater than 100 µM in each case.

In the case of `CC(=O)N/N=C1\CC(C)(C)C2CCC1C2` (centres undefined), the TGI in the test on SF-539 CNS, with HCT-15 colon, with U251 CNS, in the test on SNB-19 CNS, in the test on A549 NSCLC and in the test on SK-MEL-2 melanoma was greater than 100 µM in each case. Besides, the TGI with SK-MEL-5 melanoma and in the test on SN12C renal was greater than 100 µM in each case.

Consider `CCC1CC2C(=O)N(c3ccccc3)C(=O)C2c2[nH]c3ccccc3c21` (centres undefined), for which the TGI was greater than 100 µM in the test with HCT-15 colon; greater than 100 µM in the test with U251 CNS; 75.1 µM with SNB-19 CNS; greater than 100 µM with A549 NSCLC; greater than 100 µM with SK-MEL-5 melanoma; greater than 100 µM in the test on HT29 colon. Moreover, the TGI in the test on SN12C renal came out at 71.1 µM.

For `CC1=CC(=O)CC2(C)CC[C@@H]3C[C@]12OC3(C)C` (some centres undefined), the TGI in the test on SF-539 CNS, in the test on HCT-15 colon, with U251 CNS, in the test on SNB-19 CNS, with A549 NSCLC and in the test with SK-MEL-2 melanoma was greater than 100 µM throughout. Moreover, the TGI in the test with SK-MEL-5 melanoma, in the test with HT29 colon and with SN12C renal was greater than 100 µM throughout.

Regarding `COc1ccc(OC)c(NC(=O)CCC/C(CC(=O)c2ccc(O)c(OC)c2)=N\Nc2nnc(C)n2N)c1`, the TGI in the test on SF-539 CNS, with HCT-15 colon, in the test with U251 CNS, in the test on SNB-19 CNS, in the test on A549 NSCLC and with SK-MEL-2 melanoma was greater than 100 µM each time. Moreover, the TGI with SK-MEL-5 melanoma, in the test with HT29 colon and in the test on SN12C renal was greater than 100 µM each time.

For `COC/C=C\COC`, the TGI with HCT-15 colon, in the test on U251 CNS, with SNB-19 CNS, in the test with A549 NSCLC, with SK-MEL-2 melanoma and with SK-MEL-5 melanoma was greater than 100 µM throughout. For the same molecule, the TGI in the test with HT29 colon and in the test with SN12C renal was greater than 100 µM in each case.

As for `O=c1/c(=C/c2ccccc2[N+](=O)[O-])sc2nc3ccccc3n12`, the TGI in the test on SF-539 CNS is 37.9 µM; in the test on HCT-15 colon, 31.6 µM; with U251 CNS, 41.9 µM; in the test on SNB-19 CNS, greater than 77.9 µM; in the test with A549 NSCLC, greater than 46.4 µM; in the test on SK-MEL-2 melanoma, greater than 46.4 µM. Moreover, the TGI in the test with SK-MEL-5 melanoma, in the test on HT29 colon and with SN12C renal was greater than 46.4 µM in each case.
